Values quoted from earlier work, collected in patent publication EP1077694B1, “ARYL NITRONE THERAPEUTICS FOR THE TREATMENT OF INFLAMMATORY BOWEL DISEASE” (Renovis, Inc., priority 1998, dated 1999).

Test system: senescence-accelerated mice

SMILES: CC(C)(C)[N+]([O-])=Cc1ccccc1 [PBN, α-phenyl-t-butyl nitrone]
- increase the life span: one third
